Measurements published in patent US11667652B2, “MCL1 inhibitors” (Gilead Sciences, Inc., priority 2019, dated 2023).

What follows are compounds tested against MCL1/Bim (Homo sapiens (Human), UniProt Q07820) (assay: MCL1/Bim Binding AlphaLISA Assay). Settings: recombinant human 6xHis-MCL1 (171-327), biotinylated Bim peptide (51-76).
Procedure: MCL1/Bim Binding AlphaLISA Assay.
Inhibition of the MCL1 and Bim interaction was measured in the following AlphaLISA assay.
Recombinant human MCL1 protein (C-terminal 6×His Tagged MCL1 containing residues 171-327) was generated at Gilead Sciences, Inc. (Foster City, Calif.). A biotinylated peptide derived from human Bim (residues 51-76) was purchased from CPC Scientific (Sunnyvale, Calif.). (CPC 834113). AlphaLISA anti-6His- acceptor beads (AL128R), AlphaScreen Streptavidin donor beads (6760002B), and Proxiplate-384 Plus (6008289) were purchased from PerkinElmer.
The AlphaLISA assay was performed in a 384-well Proxiplate in a total volume of […]. The reaction mixture contained 0.0625 nM 6×His-MCL1 (171-327), 0.0625 nM biotinylated-Bim peptide, 10 μg/mL AlphaLISA anti-6×His-AlphaLISA acceptor beads, 40 μg/mL AlphaScreen streptavidin donor beads, and serially diluted test compounds in the binding buffer (20 mM Hepes, pH 7.5 (Teknova H1035); 150 mM NaCl (Promega V4221); 0.002% Brij 35 (Thermo Scientific 20150); 1 mM Dithiothreitol (DTT) Solution (Affymetrix 70726); 0.01% BSA (BioLabs B9000S)). 1,000× test compounds were pre-spotted onto 384-well Proxiplate (Labcyte Echo) by Echo 555 Liquid Handler (Labcyte Inc., San Jose, Calif.) followed by incubation of 5 μL MCL1(171-327) for 1 hour. Then 5 μL Bim (51-76) was added and incubated for 2 hours. Five μL AlphaLISA anti-6His-AlphaLISA acceptor beads were then added for 1 hour followed by addition of 5 μL AlphaScreen streptavidin donor beads for 1 hour. The reaction plates were then read on an Envision multimode reader (PerkinElmer) using AlphaScreen settings. Percent inhibition was calculated as shown below: % Inhibition=100%*(Well−Neg)/(Pos−Neg) Neg: negative control, DMSO Pos: positive control, no MCL1 protein, no biotinylated-Bim peptide

Sequence of MCL1/Bim (Q07820 171-327): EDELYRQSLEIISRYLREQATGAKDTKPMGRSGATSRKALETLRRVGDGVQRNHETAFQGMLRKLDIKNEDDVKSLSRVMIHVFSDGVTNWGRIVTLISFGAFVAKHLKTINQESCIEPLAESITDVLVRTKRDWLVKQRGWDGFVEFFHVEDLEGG

SMILES | IC50
COCCn1cc2c(N[S@@]3(=O)=NC(=O)c4ccc5c(c4)N(C[C@@H]4CC[C@H]4[C@@H](OC)/C=C/C[C@H](C)C3)C[C@@]3(CCCc4cc(Cl)ccc43)CO5)ncnc2n1 [Example 14] | 0.965 nM
CO[C@H]1CCC[C@H](C)C[S@@](=O)(Nc2ncnc3nn(C)cc23)=NC(=O)c2ccc3c(c2)N(C[C@@H]2CC[C@H]21)C[C@@]1(CCCc2cc(Cl)ccc21)CO3 [Example 28] | 0.12 nM
COc1nn(C)cc1C(=O)N[S@@]1(=O)=NC(=O)c2ccc3c(c2)N(C[C@@H]2CC[C@H]2[C@H](OC)C#CC[C@H](C)C1)C[C@@]1(CCCc2cc(Cl)ccc21)CO3 [Example 38] | 0.11 nM
COC[C@@H]1CC=C[C@@H](OC)[C@@H]2CC[C@H]2CN2C[C@@]3(CCCc4cc(Cl)ccc43)COc3ccc(cc32)C(=O)N=[S@](=O)(NC(=O)COC2CCOCC2)C1 [Example 44] | 0.648 nM
COC[C@H]1C/C=C/[C@H](OC)[C@@H]2CC[C@H]2CN2C[C@@]3(CCCc4cc(Cl)ccc43)COc3ccc(cc32)C(=O)N=[S@@](=O)(NC(=O)COC2CCOCC2)C1 [Example 45] | 0.088 nM
COc1nn(C)cc1C(=O)N[S@@]1(=O)=NC(=O)c2ccc3c(c2)N(C[C@@H]2CC[C@H]2[C@@H](OCCN2CCN(C)CC2)/C=C/C[C@H](C)C1)C[C@@]1(CCCc2cc(Cl)ccc21)CO3 [Example 59] | 0.076 nM
COc1nn(C)cc1C(=O)N[S@@]1(=O)=NC(=O)c2ccc3c(c2)N(C[C@@H]2CC[C@H]2[C@@H](OC(=O)c2cn(C)nc2OC)/C=C/[C@H](O)[C@H](C)[C@H]1C)C[C@@]1(CCCc2cc(Cl)ccc21)CO3 [Example 89] | 0.53 nM
COc1nn(C)cc1C(=O)N[S@@]1(=O)=NC(=O)c2ccc3c(c2)N(C[C@@H]2CC[C@H]2[C@@H](OC(=O)c2cn(C)nc2OC)CC[C@H](O)[C@H](C)[C@H]1C)C[C@@]1(CCCc2cc(Cl)ccc21)CO3 [Example 90] | 2.19 nM
COc1nn(C)cc1C(=O)N[S@@]1(=O)=NC(=O)c2ccc3c(c2)N(C[C@@H]2CC[C@H]2[C@](O)(CC(=O)N2CC(N4CCOCC4)C2)/C=C/C[C@H](C)C1)C[C@@]1(CCCc2cc(Cl)ccc21)CO3 [Example 107] | 0.036 nM
CO[C@H]1/C=C/C[C@H](C)C[S@@](=O)(Nc2ncnc3nn(C)cc23)=NC(=O)c2ccc3c(n2)N(C[C@@H]2CC[C@H]21)C[C@@]1(CCCc2cc(Cl)ccc21)CO3 [Example 194] | 0.1 nM
CCn1cc(C(=O)N[S@@]2(=O)=NC(=O)c3ccc4c(n3)N(C[C@@H]3CC[C@H]3[C@@H](OC)/C=C/C[C@H](C)[C@H]2C)C[C@@]2(CCCc3cc(Cl)ccc32)CO4)cn1 [Example 199] | 0.17 nM
CO[C@H]1/C=C/C[C@H](C)[C@@H](C)[S@@](=O)(NC(=O)c2cc3n(c2)CCOC3)=NC(=O)c2ccc3c(n2)N(C[C@@H]2CC[C@H]21)C[C@@]1(CCCc2cc(Cl)ccc21)CO3 [Example 202] | 0.2 nM

Results, then the compound that gave them:

IC50 | SMILES
0.089 nM | COc1nn(C)cc1C(=O)N[S@@]1(=O)=NC(=O)c2ccc3c(c2)N(C[C@@H]2CC[C@H]2[C@@H](OCC(O)CO)/C=C/C[C@H](C)C1)C[C@@]1(CCCc2cc(Cl)ccc21)CO3 (mixture of isomers) [Example 57]
0.562 nM | COc1nn(C)cc1C(=O)N[S@@]1(=O)=NC(=O)c2ccc3c(c2)N(C[C@@H]2CC[C@H]2[C@@H](OC)C/C=C\[C@H](C)C1)C[C@@]1(CCCc2cc(Cl)ccc21)CO3 (mixture of isomers) [Example 128]
1.89 nM | CO[C@H]1/C=C/C[C@H](C)C[S@@](=O)(Nc2ncc(C#N)cn2)=NC(=O)c2ccc3c(c2)N(C[C@@H]2CC[C@H]21)C[C@@]1(CCCc2cc(Cl)ccc21)CO3 [Example 2]
0.957 nM | CO[C@H]1/C=C/C[C@H](C)C[S@@](=O)(Nc2ncccn2)=NC(=O)c2ccc3c(c2)N(C[C@@H]2CC[C@H]21)C[C@@]1(CCCc2cc(Cl)ccc21)CO3 [Example 3]
1.74 nM | CO[C@H]1/C=C/C[C@H](C)C[S@@](=O)(Nc2nccc3nn(C)cc23)=NC(=O)c2ccc3c(c2)N(C[C@@H]2CC[C@H]21)C[C@@]1(CCCc2cc(Cl)ccc21)CO3 [Example 7]
0.183 nM | CO[C@H]1/C=C/C[C@H](C)C[S@@](=O)(Nc2nc(O)nc3nn(C)cc23)=NC(=O)c2ccc3c(c2)N(C[C@@H]2CC[C@H]21)C[C@@]1(CCCc2cc(Cl)ccc21)CO3 [Example 11]
2.12 nM | CO[C@H]1/C=C/C[C@H](C)C[S@@](=O)(Nc2cccnn2)=NC(=O)c2ccc3c(c2)N(C[C@@H]2CC[C@H]21)C[C@@]1(CCCc2cc(Cl)ccc21)CO3 [Example 13]
0.043 nM | COc1nn(C)cc1C(=O)N[S@@]1(=O)=NC(=O)c2ccc3c(c2)N(C[C@@H]2CC[C@H]2[C@@H](O)C#CC[C@H](C)C1)C[C@@]1(CCCc2cc(Cl)ccc21)CO3 [Example 35]
0.06 nM | CO[C@H]1/C=C/[C@H](OC)[C@H](C)C[S@@](=O)(Nc2ncnc3nn(C)cc23)=NC(=O)c2ccc3c(c2)N(C[C@@H]2CC[C@H]21)C[C@@]1(CCCc2cc(Cl)ccc21)CO3 [Example 67]
0.084 nM | COc1nn(C)cc1C(=O)N[S@@]1(=O)=NC(=O)c2ccc3c(c2)N(C[C@@H]2CC[C@H]2[C@@](C)(O)/C=C/C[C@H](C)C1)C[C@@]1(CCCc2cc(Cl)ccc21)CO3 [Example 94]
0.051 nM | COc1nn(C)cc1C(=O)N[S@@]1(=O)=NC(=O)c2ccc3c(c2)N(C[C@@H]2CC[C@H]2[C@@H](OC)[C@H](O)[C@@H](O)C[C@H](C)C1)C[C@@]1(CCCc2cc(Cl)ccc21)CO3 [Example 125]
0.13 nM | COc1nn(C)cc1C(=O)N[S@@]1(=O)=NC(=O)c2ccc3c(c2)N(C[C@@H]2CC[C@H]2[C@H](OC)[C@H](O)[C@@H](O)C[C@H](C)C1)C[C@@]1(CCCc2cc(Cl)ccc21)CO3 [Example 126]
0.059 nM | COc1nn(C)cc1C(=O)N[S@@]1(=O)=NC(=O)c2ccc3c(c2)N(C[C@@H]2CC[C@H]2[C@@H](OC)/C=C/[C@H](F)[C@H](C)C1)C[C@@]1(CCCc2cc(Cl)ccc21)CO3 [Example 127]
0.202 nM | CCCO[C@H]1/C=C/[C@H](OC)[C@@H]2CC[C@H]2CN2C[C@@]3(CCCc4cc(Cl)ccc43)COc3ccc(cc32)C(=O)N=[S@](=O)(NC(=O)c2cn(C)nc2OC)C[C@H]1C [Example 144]
0.176 nM | CO[C@H]1/C=C/C[C@H](C)[C@@H](C)[S@@](=O)(NC(=O)c2cnn(C)c2)=NC(=O)c2ccc3c(c2)N(C[C@@H]2CC[C@H]21)C[C@]1(CO3)C[C@@H]2C[C@@H]2c2cc(Cl)ccc21 [Example 171]
0.09 nM | CO[C@H]1/C=C/C[C@H](C)C[S@@](=O)(NC(=O)NC2CC2)=NC(=O)c2ccc3c(c2)N(C[C@@H]2CC[C@H]21)C[C@]1(CO3)SCCc2cc(Cl)ccc21 [Example 177]
0.06 nM | CO[C@H]1/C=C/CCC[S@@](=O)(NC(=O)c2cnn(C)c2)=NC(=O)c2ccc3c(c2)N(C[C@@H]2CC[C@H]21)C[C@]1(CO3)SCCc2cc(Cl)ccc21 [Example 182]
